Data on 48 compounds can be found in a melting point compilation (Tetko et al.).

For the compound `CNC(=O)CNC(=S)NN`, the melting point – broadly, the temperature, or range, at which the solid turns liquid – is 156 to 158 °C. For `CNC(=O)COc1ccc(C(=O)O)cc1OC`, the melting point is 221 to 223 °C. Turning to `O=C(O)c1cnc(O)cc1O`, the melting point lay within 293 to 295 °C.

Consider `CC1CCN(CCCC(N)=NO)CC1`, for which the melting point is 98 to 100 °C.

The compound `Nc1cc(C(=O)O)cc(C(F)(F)F)c1` registered a melting point of 141 to 146 °C. With `O=S(=O)(Nc1nccs1)c1ccc(Cl)nc1` the figure was 229 to 231 °C; with `Cc1c[nH]c(=O)n1-c1ccccc1Cl`, 199 to 201 °C; with `O=C(O)CSc1ccc(Br)cc1`, 117 to 119 °C. Compound `CC(C(=O)O)n1cccn1` (stereo not drawn) returned a melting point of 96 to 98 °C. As for `ClCc1sc2ccccc2c1Cl`, the melting point is 77 to 79 °C.

`Ic1cnc2ccccc2c1` returned a melting point of 57 to 59 °C. `Nc1nnc(-c2ccc(Br)c(F)c2)s1` gave a melting point of 219 to 221 °C. `C#CCNC(=O)CBr` displayed a melting point of 73 to 75 °C. In turn, `O=C(O)C1CCCN(S(=O)(=O)c2ccc(Br)s2)C1` (stereo not drawn) registered a melting point of 157 to 159 °C. `O=C(O)c1cc(Br)c(Cl)[nH]1` returned a melting point of 179 to 181 °C. Turning to `Nc1cccc(-c2cn(Cc3ccccc3)nn2)c1`, the melting point fell in the range of 139 to 141 °C. With `N#Cc1cnn(CCO)c1N` the figure was 156 to 158 °C; with `O=[N+]([O-])c1cc(NCC2CC2)ccc1S(=O)(=O)NCC1CC1`, 132 to 134 °C. In turn, `CC1(c2cccc(N)c2)NC(=O)NC1=O` (stereo not drawn) showed a melting point of 78 to 80 °C. For the compound `CC(C)Cn1cnnc1C1CCCN1` (stereo not drawn), the melting point lay within 54 to 56 °C. In turn, `O=C(O)c1cccc2[nH]c(=O)oc12` returned a melting point of 329 to 331 °C. Regarding `O=C(CCCl)Nc1ccc([N+](=O)[O-])cc1`, the melting point is 171 to 173 °C. In the case of `CCOc1ccc(CN2C(=O)c3ccccc3C2=O)cc1C(=O)O`, the melting point lay in the range of 172 to 174 °C.

The compound `O=C(O)c1ccc(OC2CCCC2)cc1` came in with a melting point of 171 to 173 °C. Take `Nc1ccc(S(=O)(=O)NCc2ccc(F)cc2)cc1`: the melting point was 136 to 138 °C. With `CC1CC(C(=O)O)CC(C)O1` (stereo not drawn) the figure was 109 to 111 °C; with `Cn1nc(-c2ccccc2)nc1CC#N`, 116 to 118 °C. Compound `O=C(O)Cc1csc(NC(=O)c2cccc(O)c2)n1` gave a melting point of 196 to 198 °C. On to `CS(=O)(=O)c1cc(C(=O)O)cc([N+](=O)[O-])c1`, for which the melting point is 229 to 231 °C.

Regarding `CC(C)(C)C1CCc2sc(-c3nnc(S)o3)cc2C1` (stereo not drawn), the melting point was 176 to 178 °C. `CC(C)(C)OC(=O)Nc1cn[nH]c1` had a melting point of 179 to 181 °C. Consider `Cc1c(CC#N)cccc1[N+](=O)[O-]`, for which the melting point lay within 79 to 81 °C. On to `CCOc1ccccc1S(N)(=O)=O`, for which the melting point was in the range of 154 to 156 °C.

For the compound `CCc1ccc(S(=O)(=O)Cl)cc1C(=O)O`, the melting point lay in the range of 133 to 135 °C. In the case of `CNS(=O)(=O)c1ccc(Sc2ccccc2C(=O)O)cc1`, the melting point lay within 199 to 201 °C.

For the compound `Nc1cccc(C(=O)N2CCC(O)CC2)c1`, the melting point was in the range of 128 to 130 °C. The compound `CCc1oc(C(=O)O)cc1C` displayed a melting point of 133 to 135 °C.

In turn, `CC(C)Cn1ncc(C(=O)O)c1C(F)F` gave a melting point of 99 to 101 °C. In turn, `COc1ccc(NS(=O)(=O)c2ccc(C(C)=O)cc2)cc1` gave a melting point of 121 to 123 °C.

The compound `NC(=O)c1ccc(F)cc1Br` had a melting point of 163 to 165 °C. With `Nc1nnn[nH]1`, the melting point is 200 to 204 °C.

Compound `NC(=O)c1cnc(Cl)cn1` showed a melting point of 166 to 168 °C.

In turn, `Cc1nc(/C=C/C(=O)O)cs1` had a melting point of 177 to 179 °C. `Cc1nn(C)c(C)c1CC(=O)O`: the melting point was 223 to 225 °C. With `O=Cc1cnn(Cc2ccccc2Cl)c1` the figure was 54 to 56 °C; with `NC(=NO)c1cccc(Oc2ccccc2)c1`, 66 to 68 °C. With `Nc1cccc(-c2nc(C3CC3)n[nH]2)c1` the figure was 154 to 156 °C; with `O=C(O)c1nc(NCc2ccccc2)ncc1Cl`, 165 to 167 °C.
